In test [1] the test system is Pf Dd2. The test is described as follows: Pf Dd2 growth inhibition assay. In kind it is cell-based, Plasmodium falciparum. An excerpt: (§1) EC50 assays were run as described in Int'l Pub Nos. WO 2015070204, WO 2018175385, and Kato, N, et al. Nature 538 (2016): 344-349, which are hereby incorporated by reference in its entirety. The inhibition of the aminoacylation activity of Pf (Plasmodium falciparum), Pv (Plasmodium vivax), Hs (Human) and Pf-Mut (L550V) cFRS enzymes by Compound 1 are illustrated in FIG. 1.

Test [2] concerns the target T1, Pf-Mut (L550V) cFRS (Plasmodium falciparum, UniProt Q8I246, L550V).
T1 sequence (Q8I246 1-575 L550V): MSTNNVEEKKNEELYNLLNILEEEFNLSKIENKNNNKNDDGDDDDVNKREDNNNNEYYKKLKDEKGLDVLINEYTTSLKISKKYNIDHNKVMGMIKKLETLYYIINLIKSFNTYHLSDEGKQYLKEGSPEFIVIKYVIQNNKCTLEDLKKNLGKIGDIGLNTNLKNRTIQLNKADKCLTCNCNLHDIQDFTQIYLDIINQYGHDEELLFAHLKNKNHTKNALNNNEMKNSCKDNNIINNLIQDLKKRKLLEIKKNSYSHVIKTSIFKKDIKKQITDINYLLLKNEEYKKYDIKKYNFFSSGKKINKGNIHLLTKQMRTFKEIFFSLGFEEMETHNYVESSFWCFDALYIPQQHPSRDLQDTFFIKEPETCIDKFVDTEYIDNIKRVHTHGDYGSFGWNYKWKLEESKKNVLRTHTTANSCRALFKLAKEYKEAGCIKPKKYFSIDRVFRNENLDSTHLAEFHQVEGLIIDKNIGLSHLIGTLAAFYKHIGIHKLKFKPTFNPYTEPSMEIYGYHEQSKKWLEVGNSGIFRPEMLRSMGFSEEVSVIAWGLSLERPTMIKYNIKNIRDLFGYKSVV
T1 sequence (Q8IIW2 1-623 partner): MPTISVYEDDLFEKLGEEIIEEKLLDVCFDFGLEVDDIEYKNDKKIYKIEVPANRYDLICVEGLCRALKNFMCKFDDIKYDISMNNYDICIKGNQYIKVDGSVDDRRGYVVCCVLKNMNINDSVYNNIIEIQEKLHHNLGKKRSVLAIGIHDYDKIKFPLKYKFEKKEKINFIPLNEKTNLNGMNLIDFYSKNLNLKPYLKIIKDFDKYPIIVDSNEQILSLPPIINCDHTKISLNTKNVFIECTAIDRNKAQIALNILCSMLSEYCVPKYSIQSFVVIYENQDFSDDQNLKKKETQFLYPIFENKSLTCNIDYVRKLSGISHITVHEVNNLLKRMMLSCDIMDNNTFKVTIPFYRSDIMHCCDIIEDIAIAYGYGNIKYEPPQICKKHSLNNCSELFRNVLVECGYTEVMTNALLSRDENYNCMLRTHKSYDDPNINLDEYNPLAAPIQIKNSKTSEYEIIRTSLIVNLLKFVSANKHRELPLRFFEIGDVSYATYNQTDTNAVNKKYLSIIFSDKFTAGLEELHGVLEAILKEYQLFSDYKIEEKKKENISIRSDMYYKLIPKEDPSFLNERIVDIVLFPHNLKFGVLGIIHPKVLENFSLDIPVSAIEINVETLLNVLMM
The test is described as follows: malachite green-based aminoacylation assay, Pf-Mut (L550V) cFRS. Conditions: aminoacylation activity; read-out: cFRS IC50, Pf mutant (L550V). In kind it is biochemical.
Text: as §1
The enzymatic activity of purified heterodimeric PfcFRS using malachite green-based aminoacylation assays with substrates L-Phe and ATP was also measured as described in Cestari, I. et al., J Biomol. Screen. 18 (2013): 490-497 and Kato, N, et al. Nature 538 (2016): 344-349, which are hereby incorporated by reference in its entirety. […] Enzymatic reactions (50 μl total volume) were performed in clear, flat-bottomed, 96-well plates (Costar 96-well standard microplates). The reaction mixture was incubated for 2 h at 37° C. The reaction was stopped by adding 12.5 μl of malachite green solution to the reaction mixture and levels of inorganic phosphate (Pi) were detected after incubation of 5 min at room temperature. Absorbance was the measured at 620 nm using a Spectramax M2 (Molecular Devices). Reactions without FRS enzyme were performed as background controls, values of which were subtracted from the reactions with enzyme. […]

In test [3] the target is T2, PfcFRS (Plasmodium falciparum, UniProt Q8I246).
T2 sequence (Q8I246 1-575): T1 sequence (Q8I246 1-575 L550V)
T2 sequence (Q8IIW2 1-623 partner): T1 sequence (Q8IIW2 1-623 partner)
The test is described as follows: Surface Plasmon Resonance binding, PfcFRS. Conditions: SPR, 25° C., PBS pH 7.4, 5% DMSO; read-out: cFRS Kd, Pf. The method, then: Surface Plasmon Resonance experiments to evaluate the binding of Compound 1 to proteins were carried out on a Biacore T200 instrument (GE Healthcare) at 25° C. The binding experiments were performed in buffer 10 mM phosphate buffered saline (PBS), pH 7.4, containing 5% dimethyl sulfoxide (DMSO). The flow system was primed with the running buffer before the initiation of the experiment. Both PfcFRS and HscFRS were immobilized to Sensor Chip CM5 by standard amine coupling chemistry using N-hydroxysuccinimide (NHS) and ethyl(dimethylaminopropyl) carbodiimide (EDC), to an immobilization level of approximately 1500 RU. The binding experiments were carried out in a single cycle kinetics mode. Compound 1 was serially diluted in running buffer, and injected at a flow rate of 60 μl min^−1 across both surface for 60 s and dissociation were set up for 120 s. The analysis was done using Biaevaluation (GE Healthcare) and GraphPad Prism 7 software (GraphPad Software Inc, USA). […] The equilibrium dissociation constants (Kd) were determined by plotting the measured response (Req) as a function of the analyte concentration. […] Measured sensograms illustrating the binding of various concentrations of Compound 1 to the protein are shown in FIG. 3B (PfcFRS) and 3C (HscFRS) including both the measured data and the 1:1 binding model fit.

As for `COC[C@@H]1[C@H](c2ccc(C#Cc3ccccc3)cc2)[C@@H]2CN(C(=O)Nc3ccc(OC4CC4)cc3)C[C@@H](O)[C@@H](O)CN12` [Compound 1, (3S,4R,8R,9R,10S)—N-(4-cyclopropoxyphenyl)-3,4-dihydroxy-10-(methoxymethyl)-9-(4-(phenylethynyl)phenyl)-1,6-diazabicyclo[6.2.0]decane-6-carboxamide], the concentration giving a half-maximal response (EC50) in test [1] (Plasmodium falciparum, DD2, read-out: PfDd2 growth inhibition EC50) was less than 1 nM. Besides, in test [1] (versus (3S,4R,8R,9S,10S)-10-((dimethylamino)methyl) analogue), the “efficacy by EC50 Pf Dd2 growth inhibition relative to comparator” value is on record as “three fold better efficacy”. The IC50 in test [2] worked out at 1000 nM. For the same compound, the Kd in test [3] was 4 nM.

As a reminder, the EC50 is the concentration that produces a half-maximal response. The term IC50 denotes the concentration that gives 50% inhibition. Broadly, the Kd is the free concentration of one partner at which half of the binding sites on the other are occupied at equilibrium, for simple one-to-one binding.
